Assay results as given in PMC6595003, “Insights into real-time chemical processes in a calcium sensor protein-directed dynamic library” (Nature Communications, 2019).
Values joined by “and” are separate entries in the source; they are usually repeats but may differ in a detail not shown here. Identical values can stand only once.

Legend:
[1] = pH 7.9
Procedure: Fluorescence-based experiments with 3a–3e were carried out to estimate their affinity to dNCS-1.

[2] = system: Drosophila model of Alzheimer's disease (motoneuron overexpression of human aβ42arc); experiment: Synapse number quantification at the neuromuscular junction of flies fed with compound; assay type: in vivo; conditions: vs DMSO
Procedure: Aβ42arc overexpressing flies and the corresponding control (LacZ expression) were fed with 3b or the solvent, DMSO, throughout all life cycle (Fig. 9 and see Methods section).
Fig. 9 In vivo effects of compound 3b. Flies with motoneuron overexpression of the human aβ42arc (arctic mutation) (D42Gal4 > aβ42arc) or mock expression (D42Gal4 > LacZ) were fed with 3b (100 μM) or same volume of vehicle DMSO. a Twenty-day old adult abdominal motoneurons were analyzed and synapse number (nc82-positive spots) of the same motoneuron in different flies (16–19) were determined using Imaris, over the confocal 1 µm stacks. […] Data are analyzed statistically with unpaired two-tailored Student’s t test; ***P < 0.001. b Locomotor activity of individual 15 days old flies was recorded for 4 days in Drosophila Activity Monitors (DAM2, Trikinetics)[36], the total number of beam breaks per hour during two consecutive days was analyzed (the activity of the first two days is considered the habituation period and is discarded). Mean ± SEM of three independent experiments with 5–12 flies per condition each, were plotted and analyzed statistically with paired two-tailed Student’s t-test, *P < 0.05. […]
The Drosophila neuromuscular junction (NMJ) allows the accurate quantitative determination of the in vivo effects of drug application on a single glutamatergic synapse. […]

dNCS-1 [3] = molecular target: T1, dNCS-1 (Drosophila melanogaster, UniProt Q9VWX8); experiment: STD-NMR experiments with dNCS-1; assay type: binding; conditions: compound 1 mM, 10 μM dNCS-1, 281 K
T1 construct: made in house; host or cells: E. coli
T1 sequence (Q9VWX8 1-187): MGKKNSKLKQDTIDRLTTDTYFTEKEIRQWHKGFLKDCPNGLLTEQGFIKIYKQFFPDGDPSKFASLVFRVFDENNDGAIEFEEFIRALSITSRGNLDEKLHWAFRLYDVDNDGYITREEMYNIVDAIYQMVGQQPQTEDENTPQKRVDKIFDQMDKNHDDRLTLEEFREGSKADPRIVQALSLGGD
Procedure: Fig. 5 ^1H-STD-NMR spectra of 3a–3e in the presence of dNCS-1. STD (blue) and off-resonance (red) NMR spectra acquired for compounds 3a–3e (1 mM) in the presence of 10 μM dNCS-1 (600 MHz, 281 K). Relative STD intensities are coded according to the color scale shown. The 100% STD signal corresponds to the resonance showing the highest intensity in each case and all other STD signals are calculated accordingly
The experiments were performed using a deuterated Tris (pH 7.9) buffered solution with an aliquot of DMSO-d6. A sample containing 10 μM of dNCS-1 and 1 mM of DCL species (molar ratio 1:100) was prepared. The STD experiments were acquired at 281 K on a Bruker Avance 600 MHz spectrometer equipped with a cryoprobe. […]. The same conditions were used for the acquisition of the STD-NMR spectra of the individual products with dNCS-1.

dNCS-1 [4] = molecular target: T1, dNCS-1; experiment: tr-NOESY, DOSY and 1H-NMR of DCL mixtures in the presence of dNCS-1; assay type: binding; conditions: 281 K, up to 15 days
Procedure: Fig. 4 HPLC-MS and NMR studies of the full dynamic combinatorial library. a DCL chromatograms after 5 h in the absence and in the presence of dNCS-1. Conditions: aldehyde 1 (1.2 µL, 50 mM), 2a–2e (3.6 µL, 50 mM), catalyst (1 µL, 12 M), dNCS-1:1 [1:1], Tris buffer (20 mM, pH 7.4), 1 mM CaCl2, 0.5 M NaCl, 1 mM DTT, T = 4 °C, 2% DMSO. DCC experiments were carried out in triplicate. b 1D-^1H NMR spectrum (red) of the mixture and DOSY experiment (black) of the DCL in the presence of dNCS-1 (281 K, 600 MHz). c Tr-NOESY spectrum of the DCL mixture in the presence of dNCS-1 (mixing time 200 ms, 281 K, 600 MHz). Amplification of the region δ 7.2–8.0 ppm. […]. The new signals that reveal the formation of 3b (aromatic region) and 2c (aliphatic region) are marked with stars. ^1H-STD-NMR (blue) and off-resonance (red) NMR spectra of the mixture 2b + 3c + dNCS-1 (281 K, 600 MHz) after 15 days
DOSY-NMR and tr-NOESY-NMR experiments were also recorded to follow the exchange process.
The experiments were performed on the same samples and spectrometer, at 281 K. The tr-NOESY mixing time was fixed at 200 ms. The DOSY experiments were acquired with 16 gradient increments to a final intensity decay of 90%.

[5] = system: Drosophila model of Alzheimer's disease (motoneuron overexpression of human aβ42arc); experiment: Fly locomotor activity assay (DAM2 beam breaks); assay type: in vivo
Procedure: (§1) Fig. 9 In vivo effects of compound 3b. Flies with motoneuron overexpression of the human aβ42arc (arctic mutation) (D42Gal4 > aβ42arc) or mock expression (D42Gal4 > LacZ) were fed with 3b (100 μM) or same volume of vehicle DMSO. a Twenty-day old adult abdominal motoneurons were analyzed and synapse number (nc82-positive spots) of the same motoneuron in different flies (16–19) were determined using Imaris, over the confocal 1 µm stacks. Data are plotted in graphs, where each grey triangle (aβ42arc flies fed with vehicle) and green triangle (aβ42arc flies fed with 3b) or each grey circle (control flies fed with vehicle) and green circle (control flies fed with 3b) represents one value. Horizontal line represents mean ± SEM. Data are analyzed statistically with unpaired two-tailored Student’s t test; ***P < 0.001. b Locomotor activity of individual 15 days old flies was recorded for 4 days in Drosophila Activity Monitors (DAM2, Trikinetics)[36], the total number of beam breaks per hour during two consecutive days was analyzed (the activity of the first two days is considered the habituation period and is discarded). Mean ± SEM of three independent experiments with 5–12 flies per condition each, were plotted and analyzed statistically with paired two-tailed Student’s t-test, *P < 0.05. Source data are provided as a Source Data file, ns non significant
(§2) To measure the physiological impact of this synaptic recovery, we evaluated fly locomotor activity. As described previously, overexpression of human aβ42arc peptide leads to severe locomotor dysfunction starting at day 15–20 post-eclosion[35].
(§3) Fifteen-day-old males were placed individually in locomotor activity monitor tubes (DAM2, TriKinetics Inc.) The DAM2 system automatically counts the number of beam breaks for flies walking in a horizontal tube over a specific period of time. This setup allowed for characterization of the locomotor and behavior rhythms of Drosophila. The tubes contained fly food with 100 µM compound 3b or same volume of DMSO. Flies were raised at 25 °C in 12-h light/12-h dark. In the first 2 days flies get habituated and the next 2 days the locomotor activity was quantified.

[6] = Fly locomotor activity assay (DAM2 beam breaks); assay type: in vivo, Drosophila
Procedure: as §1, §2, §3

[7] = 100 μM in food, one value per fly

O=C(Cc1c[nH]c2ccccc12)NN=Cc1ccc([N+](=O)[O-])c(O)c1 (mixture of isomers) [3b]
solubility observed under the experimental conditions [1]: soluble
synapse number in aβ42arc flies ([2]; fed 100 μM throughout life cycle, 20-day old adults): pathological phenotype was largely suppressed
synapse number in control (LacZ) flies ([2]; fed 100 μM): no effect
recognition by dNCS-1 in STD-NMR (dNCS-1 [3]): largest STD intensities
binding to dNCS-1 (1H-NMR evolution of the mixture 3c + 2b with dNCS-1) (dNCS-1 [4]): a dNCS-1 ligand
beam breaks per hour of individual flies, aβ42arc + 3b, Experiment 1 [5, 7]: 327 and 264 and 198 and 235 and 195 and 320 and 256 and 104 and 272 and 274 and 106 and 220
beam breaks per hour of individual flies, aβ42arc + 3b, Experiment 2 [5, 7]: 295 and 321 and 87 and 159 and 125 and 199 and 157 and 279 and 287 and 274
beam breaks per hour of individual flies, aβ42arc + 3b, Experiment 3 [5, 7]: 140 and 89 and 136 and 171 and 263 and 178 and 216 and 151 and 91 and 146 and 160
locomotor activity of aβ42arc flies ([5]; fed 100 μM, 15 days old flies, vs DMSO): locomotor deficit was recovered
beam breaks per hour of individual flies, control + 3b, Experiment 1 [6, 7]: 102 and 219 and 449 and 504 and 422 and 192 and 564
beam breaks per hour of individual flies, control + 3b, Experiment 2 [6, 7]: 281 and 38 and 295 and 200 and 178 and 147
beam breaks per hour of individual flies, control + 3b, Experiment 3 [6, 7]: 81 and 263 and 78 and 204 and 169
locomotor activity of control flies ([6]; fed 100 μM, vs DMSO): does not reveal a significant difference
